The test system of the assay is human T cells (monocyte-free). As to the kind of experiment: Inhibition of 5-HT-dependent T cell proliferation. The format is cell-based. As to conditions: inhibition of T cell proliferation stimulated with PWM (1:200) and 5-HT (100 μm), 3H-thymidine incorporation, 7 days, test range 33 μM-0.1 μM. An excerpt: The in vitro activity of the compounds according to the invention results from their capability to inhibit T cell proliferation, which is previously stimulated by serotonin.
Peripheral mononuclear blood cells (PBMC) are obtained from the buffy coat of the blood of healthy subjects. After isolation by means of isolymph gradients (Pharmacia), the PBMC are washed twice and used directly. Purified T cells are obtained by E rosette formation with sheep erythrocytes [cf. Blue, M. -L., J. F. Daley, H. Levine, K. A. Craig and S. F. Schlossmann, 1986, Biosynthesis and surface expression of T8 by peripheral blood T4+ cells in vitro, J. Immunol. 137, 1202]. Monocytes are partially removed by adhesion to tissue culture plates or flasks. PBMC, T cells or purified T cells (depleted in monocytes) at 5×10^5 /ml, 100 µl/well are cultured in RPMI 1640 medium with 10% fetal calf serum (GIBCO) and L-glutamine in 96-well microculture plates (Becton-Dickinson) under a 5% CO2 atmosphere at 37° C. for 7 days. The cultures are treated with 1 μCi of ^3 H-thymidine for 6 h on the 7th day and collected on filter paper, and the incorporated radioactivity is determined by means of liquid scintillation counting.
The test substances are dissolved in 10 mM HCl in order to achieve a final concentration of 1 mM in each case. The compounds are diluted serially 3× with medium in order to obtain a final concentration between 33 μM-0.1 μM. PWM (1:200, pokeweed mitogen) and 5-HT (100 μm, serotonin), which contain the test substances, are added to monocyte-free human T cells. The positive control (maximum proliferation ) is obtained from cultures containing T cells, PWM and 5-HT. The negative control (minimal proliferation) is obtained from cultures containing T cells and PWM without 5-HT. The inhibitory activity of the test substances is expressed as the IC50 in μM. (see also WO 92/04015)
For `O=C1C2C3c4ccccc4C(c4ccccc43)C2C(=O)N1CCCN1CC2C3C=CC(C4CC34)C2C1` (centres unmarked) [Example 1, 13-[3-(4,6-Etheno-perhydro-cycloprop[f]isoindol-2-yl)propyl]-9,10-dihydro-9,10-[3', 4']-pyrroloanthracene-12,14[11H,15H) -dione], half-maximal inhibition (IC50) was put at 5 µM. This counts as single-digit micromolar.
With `c1ccc(N2CCC3CN(CCCN4CC5C6c7ccccc7C(c7ccccc76)C5C4)CC32)cc1` (centres unmarked) [Example 10], the half-maximal inhibitory concentration (IC50) came out at 1 µM.
In the case of `C1=CC2C3CCC3C1C1CN(CCCN3CC4C5c6ccccc6C(c6ccccc65)C4C3)CC21` (centres unmarked) [Example 11], the IC50 was found to be 1 µM. In other words, the single-digit micromolar range.
In turn, `O=C1C2C3c4ccccc4C(c4ccccc43)C2C(=O)N1CCCN1CC2C3C=CC(C4CCC34)C2C1` (centres unmarked) [Example 5] gave an IC50 of 4 µM.
The compound `O=C1C2C3c4ccccc4C(c4ccccc43)C2C(=O)N1CCCN1CC2CC=CC(CO)C2C1` (centres unmarked) [Example 3] registered an IC50 of 30 µM.
On to `c1ccc(CN2CCOC3CN(CCCN4CC5C6c7ccccc7C(c7ccccc76)C5C4)CC32)cc1` (centres unmarked) [Example 9], for which half-maximal inhibition (IC50) required 20 µM.
In turn, `O=C1C2C3c4ccccc4C(c4ccccc43)C2C(=O)N1CCCN1CC[Si](c2ccccc2)(c2ccccc2)CC1` (centres unmarked) [Example 4] returned an IC50 of 20 µM. This lies in the double-digit micromolar range.
Turning to `O=C1C2C3c4ccccc4C(c4ccccc43)C2C(=O)N1CCCN1CC2CCN(c3ccccc3)C2C1` (centres unmarked) [Example 2], the IC50 worked out at 5 µM.

Source of the values: patent US5411960A, “Substituted pyrroloanthracenes and -diones” (Bayer Aktiengesellschaft, priority 1993, dated 1995).
